Measured values: patent US20230382925A1, “MODULATORS OF CYSTIC FIBROSIS TRANSMEMBRANE CONDUCTANCE REGULATOR” (VERTEX PHARMACEUTICALS INCORPORATED, priority 2020, published 2023)
Read-outs that look alike come from different tables or passages of the source.

Molecular target: CFTR (Homo sapiens, UniProt P13569)
Assay: Membrane Potential Dye, Enteroid Assay B
Format: cell-based
Method in brief: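 Activity given as % of a triple-combination reference (1 μM and 3 μM correctors, 300 nM acute potentiator). Enteroids were preincubated 18-24 h with compound; chloride efflux then measured 15 min by methyl oxonol fluorescence after forskolin/IBMX/Compound III stimulation in chloride-free buffer containing CaCCinh-A01 and Chicago Sky Blue.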

[1] = Table 10, read-out: Ent. B EC50

CFTR, sequence (P13569 with tags, fused parts or gaps DEL508-508): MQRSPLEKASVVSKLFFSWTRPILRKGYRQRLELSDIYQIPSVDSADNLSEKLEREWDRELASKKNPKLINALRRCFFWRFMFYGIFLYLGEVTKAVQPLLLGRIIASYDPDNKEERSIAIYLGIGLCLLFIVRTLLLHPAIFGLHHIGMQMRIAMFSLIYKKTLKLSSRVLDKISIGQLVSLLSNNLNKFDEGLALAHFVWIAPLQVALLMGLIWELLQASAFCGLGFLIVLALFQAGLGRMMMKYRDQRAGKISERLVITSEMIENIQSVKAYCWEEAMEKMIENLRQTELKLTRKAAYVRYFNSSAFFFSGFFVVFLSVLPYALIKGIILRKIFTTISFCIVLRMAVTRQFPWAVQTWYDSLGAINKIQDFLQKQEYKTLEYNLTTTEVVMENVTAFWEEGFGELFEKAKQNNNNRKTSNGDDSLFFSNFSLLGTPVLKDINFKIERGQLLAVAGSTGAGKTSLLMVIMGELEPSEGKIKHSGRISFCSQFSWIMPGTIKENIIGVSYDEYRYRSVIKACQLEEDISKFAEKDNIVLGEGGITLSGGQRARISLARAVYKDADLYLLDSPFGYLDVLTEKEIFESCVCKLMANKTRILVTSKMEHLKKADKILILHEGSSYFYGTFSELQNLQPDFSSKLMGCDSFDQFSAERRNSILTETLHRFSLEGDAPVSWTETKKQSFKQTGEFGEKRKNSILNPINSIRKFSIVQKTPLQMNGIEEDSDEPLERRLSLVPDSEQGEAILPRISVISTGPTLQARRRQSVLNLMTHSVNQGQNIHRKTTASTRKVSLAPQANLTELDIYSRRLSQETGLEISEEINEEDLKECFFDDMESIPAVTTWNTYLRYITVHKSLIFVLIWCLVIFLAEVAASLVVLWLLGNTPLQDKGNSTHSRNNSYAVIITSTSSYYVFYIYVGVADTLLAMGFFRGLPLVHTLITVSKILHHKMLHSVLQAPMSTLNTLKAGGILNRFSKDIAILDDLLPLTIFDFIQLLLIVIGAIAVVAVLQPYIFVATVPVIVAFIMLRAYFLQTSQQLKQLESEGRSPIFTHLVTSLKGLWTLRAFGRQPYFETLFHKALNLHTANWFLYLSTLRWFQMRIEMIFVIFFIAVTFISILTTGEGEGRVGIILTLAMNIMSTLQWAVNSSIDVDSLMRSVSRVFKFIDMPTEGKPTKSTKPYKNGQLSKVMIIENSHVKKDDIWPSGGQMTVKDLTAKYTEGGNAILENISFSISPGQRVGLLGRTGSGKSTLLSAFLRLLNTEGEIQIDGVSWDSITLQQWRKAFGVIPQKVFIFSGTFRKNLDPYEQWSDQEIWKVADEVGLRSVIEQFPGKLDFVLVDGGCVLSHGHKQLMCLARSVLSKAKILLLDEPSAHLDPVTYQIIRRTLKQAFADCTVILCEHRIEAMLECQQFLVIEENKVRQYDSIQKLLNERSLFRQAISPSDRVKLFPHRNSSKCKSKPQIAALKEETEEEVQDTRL

Row | Ent. B Max Activity (%) (Table 10) | EC50 [1] [µM] | Ent. B Max Activity (%) (Table 9) | EC50 (Table 9, read-out: Ent. B EC50) [µM] | Structure (SMILES) | other results
1 | ++ (++ is 30-60%) | < 1 |  |  | CCN(C(=O)OC)C1CC(N2C(=O)c3cccc(c3)S(=O)(=O)Nc3nc(cc(-c4c(C)cccc4C)n3)OC[C@H]2CC(C)(C)C)C1 (single isomer, unassigned) [Compound 237] | 
2 | ++ (++ is 30-60%) | < 1 |  |  | CCN(C(=O)OC)C1CC(N2C(=O)c3cccc(c3)S(=O)(=O)Nc3nc(cc(-c4c(C)cccc4C)n3)OC[C@H]2CC(C)(C)C)C1 (single isomer, unassigned) [Compound 238] | 
3 | ++ (++ is 30-60%) | < 1 |  |  | CCC(=O)N(C)C1CC(N2C(=O)c3cccc(c3)S(=O)(=O)Nc3nc(cc(-c4c(C)cccc4C)n3)OC[C@H]2CC(C)(C)C)C1 (single isomer, unassigned) [Compound 240] | 
4 |  |  | +++ (+++ is >60%) | < 1 | Cc1cccc(C)c1-c1cc2nc(n1)NS(=O)(=O)c1cccc(c1)C(=O)N(C1CC(NC(=O)C(C)C)C1)[C@H](CC(C)(C)C)CO2 (single isomer, unassigned) [Compound 444] | 
5 |  |  | +++ (+++ is >60%) | < 1 | CC(=O)NC1CC(N2C(=O)c3cccc(c3)S(=O)(=O)Nc3nc(cc(-c4c(C)cccc4C)n3)OC[C@H]2CC(C)(C)C)C1 (single isomer, unassigned) [Compound 448] | 
6 | ++ (++ is 30-60%) | < 1 |  |  | CCN(C(=O)OC)C1CC2(C1)CC(N1C(=O)c3cccc(c3)S(=O)(=O)Nc3nc(cc(-c4c(C)cccc4C)n3)OC[C@H]1CC(C)(C)C)C2 (stereo in doubt) [Compound 236] | 
7 | ++ (++ is 30-60%) | < 1 |  |  | CCC(=O)N(C)C1CC(N2C(=O)c3cccc(c3)S(=O)(=O)Nc3nc(cc(-c4c(C)cccc4C)n3)OC[C@H]2CC(C)(C)C)C1 (stereo in doubt) [Compound 239] | 
8 | ++ (++ is 30-60%) | < 1 |  |  | COC(=O)N(C)C1(C)CC(N2C(=O)c3cccc(c3)S(=O)(=O)Nc3nc(cc(-c4c(C)cccc4C)n3)OC[C@H]2CC(C)(C)C)C1 (stereo in doubt) [Compound 241] | 
9 | ++ (++ is 30-60%) | < 1 |  |  | Cc1cccc(C)c1-c1cc2nc(n1)NS(=O)(=O)c1cccc(c1)C(=O)N([C@H]1C[C@](C)(NC(=O)OC(C)C)C1)[C@H](CC(C)(C)C)CO2 (stereo in doubt) [Compound 244] | 
10 | +++ (+++ is >60%) | < 1 |  |  | Cc1cccc(C)c1-c1cc2nc(n1)NS(=O)(=O)c1cccc(c1)C(=O)N([C@H]1C[C@](C)(NC(=O)OC(C)C)C1)[C@H](CC(C)(C)C)CO2 (stereo in doubt) [Compound 245] | 
11 | +++ (+++ is >60%) | < 1 |  |  | Cc1cccc(C)c1-c1cc2nc(n1)NS(=O)(=O)c1cccc(c1)C(=O)N([C@H]1C[C@@H](N3CCOC3=O)C1)[C@H](CC(C)(C)C)CO2 (stereo in doubt) [Compound 251] | 
12 | + (+ is <300%) | < 1 |  |  | Cc1cccc(C)c1-c1cc2nc(n1)NS(=O)(=O)c1cccc(c1)C(=O)N([C@H]1C[C@@H](N(CCO)CCO)C1)[C@H](CC(C)(C)C)CO2 (stereo in doubt) [Compound 252] | 

Second part, the compound before the results:

Row | Structure (SMILES) | Ent. B Max Activity (%) (Table 10) | EC50 [1] [µM] | Ent. B Max Activity (%) (Table 9) | EC50 (Table 9, read-out: Ent. B EC50) [µM] | other results
13 | Cc1cccc(C)c1-c1cc2nc(n1)NS(=O)(=O)c1cccc(c1)C(=O)N(C1CC(NC(=O)OC(C)C)C1)[C@H](CC(C)(C)C(F)(F)F)CO2 (single isomer, unassigned) [Compound 195] | ++ (++ is 30-60%) | < 1 |  |  | 
14 | Cc1cccc(C)c1-c1cc2nc(n1)NS(=O)(=O)c1cccc(c1)C(=O)N([C@H]1C[C@@H](OC(F)(F)F)C1)[C@H](CC1(C(F)(F)F)CC1)CO2 (stereo in doubt) [Compound 212] | ++ (++ is 30-60%) | < 1 |  |  | 
15 | Cc1cccc(C)c1-c1cc2nc(n1)NS(=O)(=O)c1cccc(c1)C(=O)N(C1CC(OC(F)(F)F)C1)[C@H](CC(C)C)CO2 (stereo in doubt) [Compound 213] |  |  | +++ (+++ is >60%) | < 1 | 
16 | Cc1cccc(C)c1-c1cc2nc(n1)NS(=O)(=O)c1cccc(c1)C(=O)N(C1CC(OC(F)(F)F)C1)[C@H](CC(C)C)CO2 (stereo in doubt) [Compound 214] |  |  | +++ (+++ is >60%) | < 1 | 
17 | COC(=O)N(C)[C@H]1C[C@@]2(C1)C[C@H](N1C(=O)c3cccc(c3)S(=O)(=O)Nc3nc(cc(-c4c(C)cccc4C)n3)OC[C@H]1CC1(C(F)(F)F)CC1)C2 (stereo in doubt) [Compound 259] |  |  | +++ (+++ is >60%) | < 1 | 
18 | COC(=O)N(C)[C@H]1C[C@]2(C1)C[C@H](N1C(=O)c3cccc(c3)S(=O)(=O)Nc3nc(cc(-c4c(C)cccc4C)n3)OC[C@H]1CC1(C(F)(F)F)CC1)C2 (stereo in doubt) [Compound 260] |  |  | +++ (+++ is >60%) | < 1 | 
19 | COC(=O)NC[C@H]1C[C@@H](N2C(=O)c3cccc(c3)S(=O)(=O)Nc3nc(cc(-c4c(C)cccc4C)n3)OC[C@H]2CC(C)C)C1 (stereo in doubt) [Compound 264] |  |  | +++ (+++ is >60%) | < 1 | 
20 | COCCN1CC(N2C(=O)c3cccc(c3)S(=O)(=O)Nc3nc(cc(-c4c(C)cccc4C)n3)OC[C@H]2CC(C)C)CC1(C)C (stereo in doubt) [Compound 277] |  |  | +++ (+++ is >60%) | 1 to 3 | 
21 | CNC1CC2(C1)CC(N1C(=O)c3cccc(c3)S(=O)(=O)Nc3nc(cc(-c4c(C)cccc4C)n3)OC[C@H]1CC(C)C)C2 (stereo in doubt) [Compound 282] |  |  | +++ (+++ is >60%) | < 1 | 
22 | COCCNC1CC2(C1)CC(N1C(=O)c3cccc(c3)S(=O)(=O)Nc3nc(cc(-c4c(C)cccc4C)n3)OC[C@H]1CC(C)C)C2 (stereo in doubt) [Compound 287] |  |  | +++ (+++ is >60%) | < 1 | 
23 | COCCNC1CC2(C1)CC(N1C(=O)c3cccc(c3)S(=O)(=O)Nc3nc(cc(-c4c(C)cccc4C)n3)OC[C@H]1CC(C)C)C2 (stereo in doubt) [Compound 288] |  |  | +++ (+++ is >60%) | < 1 | 
24 | Cc1cccc(C)c1-c1cc2nc(n1)NS(=O)(=O)c1cccc(c1)C(=O)N(C1CC3(CC(N)C3)C1)[C@H](CC(C)C)CO2 (stereo in doubt) [Compound 291] |  |  | +++ (+++ is >60%) | < 1 | 
25 | Cc1cccc(C)c1-c1cc2nc(n1)NS(=O)(=O)c1cccc(c1)C(=O)N(C1CC3(CC(N)C3)C1)[C@H](CC(C)C)CO2 (stereo in doubt) [Compound 292] |  |  | +++ (+++ is >60%) | < 1 | 
26 | COCCN1CCC(N2C(=O)c3cccc(c3)S(=O)(=O)Nc3nc(cc(-c4c(C)cccc4C)n3)OC[C@H]2CC(C)C)C1 (stereo in doubt) [Compound 294] |  |  |  |  | Ent. B Max Activity (%): +++ (+++ is >60%); EC50 (read-out: Ent. B EC50): < 1 µM
27 | Cc1cccc(C)c1-c1cc2nc(n1)NS(=O)(=O)c1cccc(c1)C(=O)N([C@H]1CCN(C)C1)[C@H](CC(C)C)CO2 (stereo in doubt) [Compound 295] |  |  |  |  | Ent. B Max Activity (%): +++ (+++ is >60%); EC50 (read-out: Ent. B EC50): < 1 µM
28 | Cc1cccc(C)c1-c1cc2nc(n1)NS(=O)(=O)c1cccc(c1)C(=O)N([C@H]1CCN(C)C1)[C@H](CC(C)C)CO2 (stereo in doubt) [Compound 296] |  |  |  |  | Ent. B Max Activity (%): +++ (+++ is >60%); EC50 (read-out: Ent. B EC50): 3 to 30 µM
